We go through one compound from patent US20130023553A1, “PEGYLATED OPIOIDS WITH LOW POTENTIAL FOR ABUSE AND SIDE EFFECTS” (Nektar Therapeutics, priority 2010, published 2013).

“Also recorded” adds a separate entry of the source.

Series [1] relates to squirrel monkeys. The series can be described thus: Monkey self-administration model of addictive potential. An excerpt:
Dose-related effects of the test articles were examined, using two or more doses of each drug in 3-4 subjects in a double alternation schedule in which each unit dose (or vehicle) was used in two consecutive sessions before a change in unit dose.
Addictive potential of opioid compounds and opioid conjugates of the invention may be assessed through the use of squirrel monkey models as known in the art.
Under the double alternation schedule, each unit dose (or vehicle) was available for intravenous self-administration for two consecutive sessions before the unit dose was changed. In this way, it was possible to establish the function relating unit dose of intravenous drug to (i) number of injections per session, and/or (ii) the percentage of total responses that occur on the lever leading to self-administration (injection-lever responding, % ILR). Unit doses of drugs ranged from 0.01 to 3.2 mg/kg/injection.

Series [2] can be described thus: Pharmacokinetics following oral (PO) dosing. Type of series: in vivo, Sprague-Dawley rats. The following applies: male, Sprague-Dawley, rat, plasma. From the text:
There were 3 rats/group. All animals were food fasted overnight. […] The predose sample was collected from the JVC.
Following the last collection point, the animals were euthanized.

The target in series [3] is T1, human mu opioid receptor (Homo sapiens, UniProt P35372).
T1 construct: expressed in transfected cells; host or cells: CHO cells
T1 sequence (P35372 whole entry): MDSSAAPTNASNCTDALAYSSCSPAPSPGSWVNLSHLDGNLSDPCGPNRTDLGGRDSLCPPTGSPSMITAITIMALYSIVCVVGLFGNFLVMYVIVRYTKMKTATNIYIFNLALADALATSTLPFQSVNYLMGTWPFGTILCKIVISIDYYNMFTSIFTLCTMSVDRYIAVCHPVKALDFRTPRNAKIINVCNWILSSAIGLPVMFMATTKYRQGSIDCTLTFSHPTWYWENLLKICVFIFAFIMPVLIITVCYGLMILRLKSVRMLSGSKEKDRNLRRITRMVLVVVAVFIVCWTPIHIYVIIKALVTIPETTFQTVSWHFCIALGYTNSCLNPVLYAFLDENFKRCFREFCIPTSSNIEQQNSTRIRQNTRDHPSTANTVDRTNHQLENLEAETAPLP
The series can be described thus: biochemical. Type of series: binding. The following applies: CHO-K1 membranes, [3H]DAMGO 6 nM; read-out: Ki, Mu opioid receptor.

Series [4] has as its target T1, human mu opioid receptor. The series can be described thus: cell-based.
Series [5] relates to Sprague-Dawley rats. The series can be described thus: Abuse liability: progressive ratio test in rats trained to self-administer cocaine. Type of series: in vivo. The following applies: for reinforcing behavior, progressive ratio: all doses tested. Here is the method:
In the three-day rat substitution tests, rats trained to self-administer cocaine were exposed to saline or test article via intravenous bolus infusions for one hour sessions on three consecutive days.
The rate of self-administration is determined not only by reinforcing effects of drug but also by the direct effects of the drug on motor behavior. To measure reinforcing effects in a quantitative way, a procedure was utilized in which responding was determined by reinforcing effects uncontaminated with other drug effects. […] See, e.g., Griffiths R R, Brady J V, Bradford L D. Advances in Behavioral Pharmacology (Vol 2).
Under this schedule, the animal responds on the lever for delivery of test article. For each subsequent drug delivery the total number of responses emitted on the lever required for drug delivery was incremented upward using a logarithmic (base e) scale using the following equation:
Response requirement=5*e^(response increment*0.2)−5
The progressive “break point” is defined as the highest number of responses emitted by the animal to earn a single reinforcer delivery of drug or vehicle. This break point is used as a behavioral marker of how much work will be expended by an experimental subject to earn a single reinforcer delivery. The amount of work expended to earn a single reinforcer is used to compare the efficacy of drug deliveries with respect to the hedonic valence induced by the drug injection with the assumption that the subjective hedonic valence of a reinforcer determines its abuse liability.

For series [6], the system named is mice. Briefly: Oral dose giving maximal analgesia. Type of series: in vivo.
In series [7] the test system is male (CD1) mice. Briefly: Respiratory depression, whole body plethysmography with CO2 challenge. The following applies: equianalgesic doses (100 mg/kg vs oxycodone 30 mg/kg, gavage).
Protocol: The animals were housed in SPF conditions. The animal housing facilities were maintained at 72°+/−2° F. with a light cycle of 12:12 hours (light:dark). Autoclaved rodent chow and water are provided ad libitum.
Approximate measurements of minute ventilation were carried out using Buxco unrestrained whole body plethysmographs (WBP). Digital computer aided analysis of the analog signal was used to report measurements of tidal volume, frequency of breathing, minute ventilation, inspiratory and expiratory times and flows as well as other derived measurements.
To more clearly delineate the effect of these test articles on respiratory depression, a hypercapnic ventilatory stimulus (CO2) was added to the animals' breathing air supply to stimulate ventilation.
Mice received the drug by gavage and then were placed in the WBP. […] The mouse remained in that atmosphere for 10 minutes, after which time the chamber was flushed with zero grade air for another 20 min to allow ventilation to return to baseline. The mouse was challenged again with 8% CO2 for 10 minutes. […] The last 2 minutes of each of the two conditions (Air or 8% CO2) was recorded and analyzed for the following respiratory parameters: minute ventilation, respiratory frequency, tidal volume, and time of inspiration/expiration for animals in each dose group.
Series [8] deals with Sprague-Dawley rats. The series can be described thus: Abuse liability: three-day substitution test in rats trained to self-administer cocaine. The note with it: i.v. self-administration.
Setting [9] is: hydroxycodone series, 5.0 mg/kg oral, Mean ± SD.
Where [10] appears, read: listed as mPEG6-O-hydroxycodone.

The bioavailability is dose-corrected exposure relative to a reference, in per cent. For orientation: AUC means the area under the concentration-time curve, a measure of exposure. For orientation: MRT last means a mean duration of stay, worked out from the concentration-time curve. The AUC(0-inf) is the area under the concentration-time curve extrapolated to infinity. Broadly, the Cmax is the maximum level reached in the sampled fluid or tissue. In general, Tmax refers to the time from dosing to the highest level. In general, Ki refers to a measure of affinity in units of concentration, obtained from inhibition or displacement. In general, EC50 refers to the concentration needed to bring the measured effect to its halfway point. For `COCCOCCOCCOCCOCCOCCOC1CCC2(O)C3Cc4ccc(OC)c5c4C2(CCN3C)C1O5` (stereo not drawn) [α-6-mPEG6-O-hydroxycodone, α-6-mPEG6-O-oxycodone], the “injection lever responses (% ILR)” value is “only food lever responses” in series [1] (0.03 mg/kg/injection); 39% in series [1] (1 mg/kg/injection); 38±24% in series [1] (1 mg/kg/injection, listed as α-mPEG-6-O-hydroxycodone). Moreover, the “subjects showing addictive behavior” value came to 25% in series [1] (1 mg/kg/injection) and 50% in series [1] (3 mg/kg/injection). Also, the bioavailability in series [2] (po, 5 mg/kg) was found to be 55.3%. Further, the AUC in series [2] (setting [9]) is 585 ng·h/mL. Besides, in series [2] (setting [9]), the mean residence time (MRT last) is 2.57 h. Also, the AUC(0-inf) in series [2] (hydroxycodone series, 5.0 mg/kg oral, Mean ± SD, * n = 2) is 603 ng·h/mL. The half-life in series [2] (hydroxycodone series, 5.0 mg/kg oral, Mean ± SD, * n = 2, read-out: T1/2(z)) amounted to 1.42 ± 0.131 h. The peak concentration (Cmax) in series [2] (hydroxycodone series, 5.0 mg/kg oral, Mean ± SD, read-out: Cmax) is 171 ± 76.6 ng/mL. The Tmax in series [2] (hydroxycodone series, 5.0 mg/kg oral, median value, read-out: Tmax (converted)) was 2 h. In addition, the inhibitory constant (Ki) in series [3] came to 1.9 µM. For the same compound, the Emax in series [4] (maximal response at the highest tested concentration, read-out: % max effect, mu opioid receptor) is 102%. Besides, the EC50 in series [4] (read-out: EC50, mu opioid receptor) worked out at 12.5 µM. The “progressive ratio break point” value in series [5] (1.0 mg/kg/injection) was 21. The “reinforcing behavior, progressive ratio” value in series [5] was “no reinforcing behavior was observed; also recorded: no reinforcing behaviour was exhibited”; in series [5] (setting [10]), “showed no reinforcing properties and behaved like saline”. The “oral dose at which maximal analgesia was obtained” value in series [6] was 100 mg/kg. The “respiratory depression compared to oxycodone” value in series [7] (listed as PEG-6-O-hydroxycodone) was “produces less respiratory depression than oxycodone”; in series [7] (setting [10]) it was “less respiratory depression”. Besides, the entries for the “reinforcing behavior, three-day substitution” value in series [8] and in series [8] (setting [10]) were “no reinforcing behavior was observed; also recorded: lack of reinforcing behavior” and “no behavioral evidence of positive reinforcement”, respectively.
